Measured values: US20140194529A1, “USAGE OF NATURAL COMPOUND FOR TREATING INFLAMMATION AND CANCER” (Hong Kong Baptist University, priority 2013, published 2014)
Where two headings read alike, the source gives them in different places.

Tests used:
Assay type in all cases: cell-based
[1] = tested on: iNOS-induced NO generation in RAW 264.7 cells; assay: NO accumulation in LPS/IFN-γ stimulated RAW 264.7 cells (Griess reaction); conditions: 24 hours
Method: (§1) RAW264.7 were maintained in RPMI 1640 medium supplemented with 10% FBS at 37° C. in a humidified 5% CO2 atmosphere. Cells were plated in a 96-well plate (5×10^3 cells/well) and allowed to attach overnight. The cells were then stimulated with 10 U/ml of IFN-γ and 100 ng/ml of LPS for 24 hours in the presence or absence of GE with final concentration of 50, 25, 12.5, 6.25, 3.125 μg/mL, and Indometacin as positive drug.
as §1, with “For stimulation, the medium was replaced with fresh FBS-free RPMI 1640 for 10 hours, and the” for “The”, “extractions or fractions.” for “GE with final concentration of 50, 25, 12.5, 6.25, 3.125 μg/mL, and Indometacin as positive drug.”
iNOS function was analyzed with Griess reaction by assay of nitrite concentration in the culture supernatant. Briefly, 100 μl/well of sample was incubated with equal volume of Griess solution (1% sulfanilamide in 5% phosphoric acid+1% α-naphthylamine in distilled water) at room temperature for 10 minutes. The absorbance was evaluated at 540 nm using a calibration curve with a sodium nitrite standard. Percent inhibition was expressed as [1−(NO level of sample/NO level of vehicle treated−control)]×100.

HepG2 = assay: Cell cytotoxicity, MTT method; conditions: HepG2, 72 hours, read-out: The cell cytotoxicity effect, IC50
Method: (§2) RAW 264.7 cells were obtained from the American Tissue Culture Collection (ATCC). Liver cancer line SMMC-7721 and HepG2, breast cancer lines including MCF-7 and MDA-MB-231 were purchased from cell-bank of Chinese Academy of Sciences, China. These cells were maintained in complete RPMI 1640 medium supplemented with 10% FBS at 37° C. in a humidified 5% CO2 atmosphere.
(§3) SMMC-7721 and HepG2, MCF-7 and MDA-MB-231 were seeded into 96-well plates (3×10^3 cells/well) and allowed to attach overnight. GE were added in final concentration of 50, 25, 12.5, 6.25, 3.125 μg/mL and continually cultured for 72 hours. Taxol as positive drug. Each well was incubated with 20 μl MTT (5 mg/ml in phosphate-buffered saline) for 4 hours at 37° C. Volume of 150 μl DMSO was added after the medium in well discarded and reacted for 10 minutes. Absorbance was measured at 490 nm. The optical density of formazan formed in control (untreated) cells was taken as 100% of viability. Mean value of each concentration (n=3 wells) was obtained.

MCF-7 = assay: Cell cytotoxicity, MTT method; conditions: read-out: The cell cytotoxicity effect, IC50
Method: as §2, §3

MDA-MB-231 = assay: Cell cytotoxicity, MTT method; conditions: MDA-MB-231, 72 hours
Method: as §2, §3

SMMC-7721 = assay: Cell cytotoxicity, MTT method; conditions: SMMC-7721, 72 hours, read-out: The cell cytotoxicity effect, IC50
Method: as §2, §3

[2] = tested on: breast cancer lines and liver cancer lines; assay: Cell cytotoxicity, MTT method (summary in conclusion)
Method: as §2, §3

In the case of Garcimultiflorone E [GE], the “The inhibitory effect on NO accumulation, IC50” value ([1]; RAW 264.7, 10 U/ml IFN-γ + 100 ng/ml LPS) is reported as 3.57 µg/mL, the IC50 ([1]; RAW 264.7, 10 U/ml IFN-γ + 100 ng/ml LPS, read-out: The inhibitory effect on NO accumulation, IC50) is reported as 5.78 µM and the IC50 (HepG2) is reported as 13.2 µM. The IC50 (MCF-7; MCF-7, 72 hours) was 9.63 µM, the “Effect on proliferation (in words)” value (MDA-MB-231) was “no effect” and the IC50 (SMMC-7721) was 11.9 µM. For the same compound, the “Concentration at which proliferation is inhibited” value [2] was “about 10 μM”.
Compound `COc1ccc2c(c1)c(CC(=O)O)c(C)n2C(=O)c1ccc(Cl)cc1` [Indometacin, reference compound] has an inhibition at 1 µg/mL ([1]; Mus musculus, RAW264.7, 1 μg/mL, RAW 264.7, IFN-γ + LPS, read-out: The inhibitory effect on NO accumulation) of 46.5%.
With `CC(=O)O[C@H]1C(=O)[C@@]2(C)[C@H]([C@H](OC(=O)c3ccccc3)[C@]3(O)C[C@H](OC(=O)[C@H](O)[C@@H](NC(=O)c4ccccc4)c4ccccc4)C(C)=C1C3(C)C)[C@]1(OC(C)=O)CO[C@@H]1C[C@@H]2O` [Taxol, reference compound] the IC50 (HepG2; Homo sapiens) was 0.00044 µM, the IC50 (MCF-7; Homo sapiens, MCF7, MCF-7, 72 hours) was 0.003 µM and the IC50 (MDA-MB-231; Homo sapiens, read-out: The cell cytotoxicity effect, IC50) was 5 µM. It also gave an IC50 (SMMC-7721; Homo sapiens) of 0.15 µM.
